Results on seven compounds are retold here after PubChem BioAssay (NCI).

Where “and” joins values, the source holds several entries; their conditions need not be identical. Identical values can stand only once.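 Compound exposure: 48 hours, 5 concentrations, 96-well plates. GI50 marks 50% less growth. At the TGI there is no net growth.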

Common to all, as to experiment: NCI tumour cell line growth inhibition, 48 h
In assay [1] the test system is SK-MEL-28 melanoma.
Assay [2] concerns OVCAR-3 ovarian.
Assay [3] concerns DU-145 prostate.
For assay [4], the system named is NCI-H460 lung.
In assay [5] the test system is NCI/ADR-RES ovarian.
The subject of assay [6] is NCI-H226 lung.
In assay [7] the test system is HCC-2998 colon.
Assay [8] concerns MDA-MB-231 breast.
Assay [9] concerns CAKI-1 renal.
Assay [10] deals with HCT-116 colon.

Consider `O=C(O)[C@@H](Cc1ccccc1)NS(=O)(=O)c1ccc(-c2ccccc2)cc1`, for which the GI50 in assay [1], in assay [2], in assay [3], in [4], in assay [5] and in assay [6] was > 100 µM each time. Further, the GI50 in assay [7], in assay [8], in assay [9] and in [10] was > 100 µM each time. Besides, the TGI in assay [1], in [2], in assay [3], in assay [4], in assay [5] and in assay [6] was > 100 µM each time. Besides, the TGI in [7], in [8], in assay [9] and in assay [10] was > 100 µM in each case.
For the compound `Cc1cccc(Nc2ncc(-c3ccccc3)o2)c1`, the GI50 in assay [1], in [2], in assay [3], in assay [4], in assay [5] and in assay [6] was > 25 µM throughout. Moreover, the GI50 is > 25 µM in assay [7], > 18.8 µM in assay [8], > 25 µM in assay [9] and > 25 µM in assay [10]. For the same compound, the TGI in assay [1], in assay [2], in [3], in assay [4], in assay [5] and in assay [6] was > 25 µM throughout. For the same compound, the TGI in assay [7], in assay [8], in [9] and in [10] was > 25 µM in each case.
Regarding `COc1ccc2c(c1)C(=O)CC(C(N)=O)C2` (stereo not drawn), the TGI in assay [1], in assay [2], in assay [3], in assay [4], in assay [5] and in [6] was > 100 µM in each case. In addition, the TGI in assay [7], in assay [8], in [9] and in assay [10] was > 100 µM in each case.
As for `Nc1ncnc2c1ncn2Cc1ccc(CCl)cc1`, the GI50 in assay [1] was 21.7 µM; in [2] it was 14.3 µM; in [3], 19 µM; in assay [4], 17 µM; in [5] it was 18.7 µM; in assay [6], 20.6 µM. The GI50 was 14.2 µM in assay [7], 17.5 µM in assay [8], 14.3 µM in assay [9] and 36.2 µM in assay [10]. The TGI is > 100 µM in [1]; 31.7 µM in assay [2]; 50.7 µM in assay [3]; 41.1 µM in assay [4]; 44.5 µM in assay [5]; 35.3 µM in assay [6]. Also, the TGI was 29 µM in assay [7], 35.8 µM in assay [8], 28.9 µM in assay [9] and > 100 µM in assay [10].
With `OCC1OC(n2cnc3cc(Cl)c(Cl)cc32)C(O)C1O` (stereo not drawn), the GI50 in [1] was 29.3 µM; in assay [2] it was 22.7 µM; in assay [3], 17.2 µM; in [4] it was 30 µM; in assay [5] it was 18.8 µM; in [6] it was 8.32 µM. In addition, the GI50 in assay [7] was 12.7 µM; in assay [8], 21.2 µM; in assay [9], 14.2 µM; in assay [10] it was 18 µM. Further, the TGI in [1] was > 100 µM; in [2], 72.3 µM; in assay [3], > 61.2 µM; in [4], > 100 µM; in [5], 56.6 µM; in [6], 35.3 µM. For the same compound, the TGI was found to be 27 µM in assay [7], 60.1 µM in assay [8], 47.8 µM in [9] and 44.2 µM in [10].
Consider `Cn1cc(-c2nc(-c3c[nH]c4ccccc34)cs2)c2cccnc21`, for which the GI50 in [1] was 0.71 µM; in [2], 0.2 µM; in assay [3] it was 0.564 µM; in [4], 0.339 µM; in assay [5], 0.11 µM; in [6], 0.578 µM. Besides, the GI50 is 0.844 µM in [7], 1.29 µM in [8], 0.273 µM in [9] and 0.364 µM in assay [10]. Also, the TGI is > 100 µM in assay [1]; 5.9 µM in assay [2]; > 100 µM in [3]; > 100 µM in [4]; 3.37 µM in [5]; > 100 µM in [6]. The TGI was > 79.7 µM in assay [7], > 100 µM in assay [8], > 100 µM in [9] and > 47.2 µM in assay [10].
Regarding `C/C=C1/CN2CCC34c5ccccc5N5C(=O)C(C6CC78c9ccccc9N9C(=O)C=CC(C%10CC7N6C/C%10=C/C)C98)=CC(C1CC23)C54` (stereo not drawn), the GI50 in [1] is 10.1 µM; in assay [2], 10.7 µM; in assay [4] it was 9.87 µM; in [5], 2.57 µM; in [6], 24 µM; in assay [7], 13.4 µM. Also, the GI50 in assay [8] is 13.4 µM; in assay [10], 2.3 µM. The TGI in assay [1] was 11.3 µM and 22.7 µM; in assay [2], 16.5 µM and 23.5 µM; in [3], 23.4 µM; in [4], 15.9 µM and 40 µM; in [5] it was 50 µM and 10.4 µM; in assay [6], 15 µM and 46 µM. Further, the TGI in [7] was 12.2 µM and 29.9 µM; in assay [8], 8.36 µM and 29 µM; in [9], 21.2 µM and 26.8 µM; in assay [10], 12.1 µM and 5.45 µM.
